Reference: patent publication US20230220331A1, “TEMPORARY TREATMENT MEDIUM, TREATMENT KIT, EMBRYOGENESIS ARREST INHIBITOR, EMBRYOGENESIS ARREST INHIBITORY METHOD, DEVELOPMENTAL ENGINEERING PRODUCT PREPARATION METHOD, TRANSPLANTATION METHOD, THERAPEUTIC METHOD, AND DEVELOPMENTAL ENGINEERING PRODUCT” (priority 2020, published 2023)

What was measured:
[1] = system: frozen embryos of the inbred mouse B6J strain (blastocyst stage); assay: Surviving embryos after re-freezing and thawing of blastocysts (Treatment Example 9); type: cell-based
Description: Then, in the early embryos of the inbred mouse B6J strain, an example of using frozen embryos preserved at the blastocyst stage, using the normal medium or the temporary treatment medium according to the present embodiment before and after the manipulation, and comparing whether the occurrence changes is described. In this treatment example, as the temporary treatment medium, a Y-27632-added mWM medium so as to be 10 μM was used (in this example, it is referred to as “Y+ medium”). In addition, as the normal medium, an mWM medium to which Y-27632 was not added was used (In this example, it is referred to as “Y− medium”). As a treatment, the prepared frozen embryos were thawed and developed as they were in Y− medium until the blastocyst stage. Then, half of the embryos that had developed up to the blastocyst were transferred to Y+ medium and placed for 30 minutes. After that, the embryos were transferred to Y− medium again and placed for 30 minutes. Then, the embryos treated with Y+ medium and the embryos not treated were frozen in one tube, respectively. Both tubes of embryos were then thawed and placed in the normal medium for 10 minutes. Then, the embryos were evenly divided into Y+ medium and Y− medium, respectively, and placed for 1 hour. Then, again, each tube of embryos was returned to Y− medium in each tube and the embryos were observed. […]

[2] = system: early embryos of the inbred mouse B6J strain; assay: Recovery of inbred mouse early embryos frozen and thawed multiple times (Treatment Example 15); type: cell-based; details: frozen TWICE
Source text: Then, in the same manner as in Treatment Example 9 according to Example 1, it was investigated whether or not the early embryos of the inbred mouse B6J strain, not the normal mice, could recover after frozen and thawed at multiple times.

[3] = system: Wistar-Imamichi and WKY rat embryos; assay: Klotho (40 kbp) large deletion knockout rats by electroporation (Treatment Example 13); type: cell-based; details: for large deletion (proportion of individuals) / large deletion (%): Klotho
Description: In the Wistar-Imamichi line, which are similar to the inbred line, and the inbred WKY line, when the Klotho gene (40 kbp), of which whole gene could not normally be deleted, were knocked out by electroporation, the temporarily treatment is processed as similar to Example 1 as described above. Specifically, before and after electroporation, 1 hour of temporary treatment, 24 hours of culture in the normal medium (waiting period), and 1 hour of temporary treatment were performed.

[4] = system: pronuclear stage embryos of inbred rats F344; assay: Generation of Flox inbred rats (individuals) by one-step method (Treatment Example 12); type: cell-based, rat; details: F344, floxed p53 1STEP, high concentration, many pulses
Description: The pronuclear stage embryos of inbred rats similar to those of Treatment Example 6 according to Example 1 were knocked in by an electroporation method (1STEP method) by using a high concentration ssODN, and further individual preparations were performed. As in the above-mentioned treatment example 6, insertion of the LoxP that was not knocked in at the normal ssODN concentration and the number of transfer pulses was performed with the same temporary treatment as in the above-mentioned Example 1. Specifically, before and after electroporation, 1 hour of the temporary treatment, 24 hours of culture in the normal medium (waiting period), and 1 hour of the temporary treatment were performed. This made it possible to double the concentration of ssODN and the number of electroporations and to knocked in. Further, when the concentration of Cas9 was increased 5 times, Flox inbred rats were obtained by one electroporation.

[5] = system: inbred rat F344 embryos; assay: Development to blastocyst after two electroporations (Treatment Example 5); type: cell-based; details: treated before and after electroporation
Description: 1. At least 3 hours before TAKE, 5 drops of Y-27632-added KSOM AA medium (Y-27632 final concentration 10 μM, an example of the “temporary treatment medium” of this example) were placed on a 35 mm Petri dish and drops covered with paraffin oil.
2. Pronuclear stage embryos were collected, placed in Y-27632-added KSOM AA medium, and cultured for about 30 minutes to 1 hour (temporary treatment).
3. After that, the first TAKE was performed.
4. After TAKE, the embryos were placed in Y-27632-added KSOM AA medium and cultured under 37° C., 5% CO2, and 5% O2 conditions for 30 minutes and more and up to 12 hours (temporary treatment).
5. Then, they were placed in Y-27632-free KSOM AA medium (an example of the “normal medium” of this example), and cultured under 37° C., 5% CO2, and 5% O2 conditions until the second TAKE.
6. The next day, the embryos that had become two cells were separated, and about 20 to 22 hours after egg collection, they were placed in Y-27632-added KSOM AA medium again and cultured for about 30 minutes to 1 hour (temporary treatment).
7. After that, the second TAKE was performed.
8. […]
In these figures, the development rate of the two-cell stage was calculated as the ratio of the two-cell stage embryo to the pronuclear stage embryo, and the development rate of the blastocyst stage was calculated as the ratio of the blastocyst stage to the two-cell stage embryo.

[6] = Y+ before freezing and Y+ after thawing, 26 embryos
[7] = Y+ before freezing, Y− after thawing, 26 embryos
[8] = Y− before freezing, Y+ after thawing, 20 embryos
[9] = Wistar-Imamichi, HIGH CONCENTRATION
[10] = Wistar-Imamichi, 164 transferred embryos
[11] = Wistar-Imamichi, LOW CONCENTRATION

For C[C@@H](N)[C@H]1CC[C@H](C(=O)Nc2ccncc2)CC1 [Y-27632, trans-4-[(1R)-1-Aminoethyl]-N-4-pyrid inylcyclohexanecarboxamide], the “NUMBER OF OUTGROWTH, 24 hours after thawing” value (“NUMBER OF OUTGROWTH, 24 hours” below) [1, 6] was “(11)”, the “surviving embryos 3 HOURS AND A HALF AFTER THAWING” value [1, 6] was 12 and the “surviving embryos 24 HOURS AFTER THAWING” value [1, 6] was 24. For the same compound, the “surviving embryos IMMEDIENTLY AFTER THAWING” value [1, 6] was 7, the “RECOVERY RATE” value ([1]; Y+ before freezing and Y+ after thawing, 26 embryos, frozen twice, listed as Y+) was 92% and the “RECOVERY RATE” value ([1]; Y+ before freezing and Y+ after thawing, 26 embryos, frozen twice, listed as Y+ medium) was “up to 92%”. The “NUMBER OF OUTGROWTH, 24 hours” value [1, 7] was “(7)”, the “RECOVERY RATE” value [1, 7] was 70% and the “surviving embryos 3 HOURS AND A HALF AFTER THAWING” value [1, 7] was 11. For the same compound, the “surviving embryos 24 HOURS AFTER THAWING” value [1, 7] was 14, the “surviving embryos IMMEDIENTLY AFTER THAWING” value [1, 7] was 6 and the “NUMBER OF OUTGROWTH, 24 hours” value [1, 8] was “(3)”. For the same compound, the “RECOVERY RATE” value [1, 8] was 55%, the “surviving embryos 3 HOURS AND A HALF AFTER THAWING” value [1, 8] was 5 and the “surviving embryos 24 HOURS AFTER THAWING” value [1, 8] was 11. The “surviving embryos IMMEDIENTLY AFTER THAWING” value ([1]; Y− before freezing, Y+ after thawing, 20 embryos, Y-27632 10 μM) was 3, the “NUMBER OF RECOVERIES” value [2] was 24/26 and the recoveries % [2] was 92%. The “large deletion (proportion of individuals)” value ([3]; WKY, high concentration, many pulses, 15 transferred embryos) was 2/3, the “large deletion (%)” value ([3]; WKY, high concentration, many pulses, listed as +Y) was “(66%)” and the “large deletion (%)” value ([3]; WKY, high concentration, many pulses, listed as Y) was 66.6%. For the same compound, the “KLOTHO LARGE DELETION HETERO %” value [3, 9] was 41.3%, the “KLOTHO LARGE DELETION HOMO %” value [3, 9] was 23.2% and the “NUMBER OF INDIVIDUALS, KLOTHO LARGE DELETION HETERO” value [3, 9] was 19/46. The “NUMBER OF INDIVIDUALS, KLOTHO LARGE DELETION HOMO” value [3, 9] was 10/46, the “large deletion (%)” value [3, 10] was “(63%)” and the “large deletion (proportion of individuals)” value [3, 10] was 29/46. The “KLOTHO LARGE DELETION HETERO %” value [3, 11] was 16.6%, the “KLOTHO LARGE DELETION HOMO %” value [3, 11] was 0% and the “NUMBER OF INDIVIDUALS, KLOTHO LARGE DELETION HETERO” value [3, 11] was 3/18. For the same compound, the “NUMBER OF INDIVIDUALS, KLOTHO LARGE DELETION HOMO” value [3, 11] was 0/18, the “NUMBER OF FLOX INDIVIDUALS / FLOX (2 SITES)” value ([4]; 92 transplanted embryos) was 1/9 and the Flox individuals % ([4]; listed as +Y) was 11%. The Flox individuals % ([4]; listed as Y) was 11.1%, the “2-cell stage embryos developed until the blastocyst stage (proportion)” value [5] was 74 of 103 and the “embryos developed to the blastocyst (%)” value ([5]; ratio of blastocysts to 2-cell embryos) was 71.8%.
